Drawing on US11634447B2 (priority 2012, dated 2023), this text covers IC50 and Kd for 14 compounds.

In experiment [1] the test system is bacterial strain LF82 binding to the glycoprotein BSA-(Mannose)3. As to the kind of experiment: Bacterial Binding Assay (BBA). The class given is cell-based, Escherichia coli. Particulars: read-out: Bacterial Binding Assay IC50, LF82/Luciferase strain binding to BSA-(Man)3 coated plates, luminescence. The gist of the method: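 Inhibition of LF82/luciferase E. coli adhesion is read as luminescence after washing off unbound cells. Compound and bacteria (10^7 per well) are co-incubated 40-75 min at room temperature on wells coated with 0.5-2 μg/mL BSA-(Man)3, with BSA-only wells as background; IC50 values derived.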

Another experiment deals with T1, FimH-CRD (Escherichia coli, UniProt P08191).
T1 construct: The first 177 amino acids of the FimH protein are expressed as a fusion protein; thrombin tag (printed as 'fusion protein with thrombin') (cleaved yes); made in house; host or cells: bacteria (pET21b plasmid)
As to the kind of experiment: Competitive binding assay by fluorescence polarization, assay 2 (compounds prepared by a robotics system, plates frozen and thawed). Also on record: species or system E. coli. The method, then:
The first 177 amino acids of the FimH protein are expressed as a fusion protein with thrombin in a pET21b plasmid in bacteria. This FimH protein sequence contains the carbohydrate recognition domain (CRD) and shall be termed FimH-CRD. Following bacterial expression of the protein, the FimH-CRD protein is purified to homogeneity and the thrombin tag removed by protease cleavage. A competitive binding assay by fluorescence polarization is performed using 5 nM of the Alexa 647 mannoside probe and 60 nM of the FimH-CRD. The samples are assayed in a low volume 384 well microtiter plate in a final volume of 20 μl. The final assay buffer conditions are the following, 50 mM Tris-Cl, ph 7.0, 100 mM NaCl, 1 mM EDTA, 5 mM β-mercaptoethanol, 0.05% BSA and 2.5% DMSO. Two assays are performed for FimH, termed assay 1 or assay 2. The assay conditions are the same for both assays except the following: assay 1 has compounds prepared by manual dilution in a serial dilution factor with 12-point dose response while assay 2 has compounds prepared by a robotics system also through a serial dilution factor (12 point dose response) and initially prepared in duplicate in 384 well-Corning polypropylene round bottom plates. The assay 2 plates have compound which is then frozen and must be thawed prior to use. Initially the Alexa 647 probe and the FimH-CRD are added to the assay buffer and then 0.5 μl of test compound (assay 1 or 2) between 0.4 nM to 75 μM final concentration are added (12 point titration with 3-fold serial dilution). Control wells for the Alexa 647 probe are prepared with the same conditions except for the addition of the FimH-CRD protein. Plates are then incubated for 5 hrs at room temperature in the dark and under humid conditions to prevent drying. Plates are read using the SpectraMax Paradigm multi-mode plate reader and the appropriate fluorescent polarization detection cartridge (Alexa-647).
Alexa 647 mannoside probe is prepared using the similar procedure reported for FAM mannoside (Han, Z. et. al., 2010, J. Med. Chem., 53, 4779) and is described in the scheme below.
To a blue colored stirred solution of (2S,3S,4S,5S,6R)-2-(4-aminobutoxy)-6-(hydroxymethyl)tetrahydropyran-3,4,5-triol (2.21 mg, 0.009 mmol) and the (2E)-2-[(2E,4E)-5-[3,3-dimethyl-5-sulfonato-1-(3-sulfonatopropyl)indol-1-ium-2-yl]penta-2,4-dienylidene]-3-[6-(2,5-dioxopyrrolidin-1-yl)oxy-6-oxo-hexyl]-3-methyl-1-(3-sulfonatopropyl)indoline-5-sulfonate (Potassium Ion (3)) (4.9 mg, 0.0044 mmol) in DMF (44 μL) is added Et3N (5.4 mg, 7.0 μL, 0.053 mmol) at RT. The solution is stirred at room temperature over night, concentrated, dissolved in water and purified on 12 g C-18 silica gel cartridge on Isolera system using acetonitrile in water (0 to 40%, 10 CV) and followed by lyophilization to afford Alexa 647 mannoside probe (3.3 mg, 34%) as deep blue solid.
The Kd values of the compounds are determined from dose response curves using twelve concentrations per compound in duplicate. Curves are fitted to data points using Fluorescence Polarization competitive displacement analysis, and Kds are interpolated from the resulting curves using GraphPad Prism software, version […] (GraphPad software Inc., San Diego, Calif., USA).

[2] abbreviates: Assay 2 Kd, 5 nM Alexa 647 mannoside probe, 60 nM FimH-CRD, replicate values in one cell.
The mark [3] stands for this setting: read-out: Assay 2 Kd, 5 nM Alexa 647 mannoside probe, 60 nM FimH-CRD, replicate values in one cell.

pIC50, pKd: −log10 of the molar value. Several values for one entry are separate records, joined by “and”; a condition that tells them apart may be missing. Identical values can stand only once. Like-named read-outs stand apart in the source and are kept apart here.

T1 sequence (P08191 22-177): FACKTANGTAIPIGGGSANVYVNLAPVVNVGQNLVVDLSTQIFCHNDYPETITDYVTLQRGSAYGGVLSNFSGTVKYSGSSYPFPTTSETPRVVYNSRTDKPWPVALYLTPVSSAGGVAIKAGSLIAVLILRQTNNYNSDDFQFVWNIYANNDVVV

Take `OC[C@H]1O[C@H](C#Cc2ccc(C#C[C@H]3O[C@H](CO)[C@@H](O)[C@H](O)[C@@H]3O)cc2)[C@@H](O)[C@@H](O)[C@@H]1O` [Compound 53, (2R,3S,4R,5S,6R)-2-(Hydroxymethyl)-6-[2-[4-[2-[(2R,3S,4R,5S,6R)-3,4,5-trihydroxy-6-(hydroxymethyl)tetrahydropyran-2-yl]ethynyl]phenyl]ethynyl]tetrahydropyran-3,4,5-triol]: the pIC50 in experiment [1] is 7.26. Further, the pKd at FimH-CRD (setting [2]) and at FimH-CRD (setting [3]) was > 8.30 in each case.
As for `OC[C@H]1O[C@H](C#CC#C[C@H]2O[C@H](CO)[C@@H](O)[C@H](O)[C@@H]2O)[C@@H](O)[C@@H](O)[C@@H]1O` [Compound 54, (2R,3S,4R,5S,6R)-2-(hydroxymethyl)-6-[4-[(2R,3S,4R,5S,6R)-3,4,5-trihydroxy-6-(hydroxymethyl)tetrahydropyran-2-yl]buta-1,3-diynyl]tetrahydropyran-3,4,5-triol], the pIC50 in experiment [1] was 5.94. On FimH-CRD (setting [2]), the pKd is 7.80 and 7.52.
For the compound `O=C(C[C@H]1O[C@H](CO)[C@@H](O)[C@H](O)[C@@H]1O)Nc1cccc(NC(=O)C[C@H]2O[C@H](CO)[C@@H](O)[C@H](O)[C@@H]2O)c1` [Compound 48, (2-[(2R,3S,4R,5S,6R)-3,4,5-Trihydroxy-6-(hydroxymethyl)tetrahydropyran-2-yl]-N-[3-[[2-[(2R,3S,4R,5S,6R)-3,4,5-trihydroxy-6-(hydroxymethyl)tetrahydropyran-2-yl]acetyl]amino]phenyl]acetamide)], at FimH-CRD (setting [2]), the pKd was 7.10 and 7.30 and 7.20.
For `OC[C@H]1O[C@H](c2cccc(C#CC#Cc3cccc([C@H]4O[C@H](CO)[C@@H](O)[C@H](O)[C@@H]4O)c3)c2)[C@@H](O)[C@@H](O)[C@@H]1O` [Compound 50, ((2R,3S,4R,5S,6R)-2-(Hydroxymethyl)-6-[3-[4-[3-[(2R,3S,4R,5S,6R)-3,4,5-trihydroxy-6-(hydroxymethyl)tetrahydropyran-2-yl]phenyl]buta-1,3-diynyl]phenyl]tetrahydropyran-3,4,5-triol)], the pIC50 in experiment [1] was 6.02. For the same compound, the Kd on FimH-CRD (setting [2]) was 9 nM and < 5 nM (2×).
For the compound `OC[C@H]1O[C@H](c2ccc([C@H]3O[C@H](CO)[C@@H](O)[C@H](O)[C@@H]3O)s2)[C@@H](O)[C@@H](O)[C@@H]1O` [Compound 46, ((2R,3S,4S,5S,6S)-2-(Hydroxymethyl)-6-[5-[(2S,3S,4S,5S,6R)-3,4,5-trihydroxy-6-(hydroxymethyl)tetrahydropyran-2-yl]-2-thienyl]tetrahydropyran-3,4,5-triol)], on FimH-CRD (setting [2]), the pKd was 7.96 and 8.05 and 7.80 and 7.85.
With `OC[C@H]1O[C@H](C#Cc2cccc3c(C#C[C@H]4O[C@H](CO)[C@@H](O)[C@H](O)[C@@H]4O)cccc23)[C@@H](O)[C@@H](O)[C@@H]1O` [Compound 60, (2R,3S,4R,5S,6R)-2-(Hydroxymethyl)-6-[2-[5-[2-[(2R,3S,4R,5S,6R)-3,4,5-trihydroxy-6-(hydroxymethyl)tetrahydropyran-2-yl]ethynyl]-1-naphthyl]ethynyl]tetrahydropyran-3,4,5-triol], the pIC50 in experiment [1] was 7.89. In addition, the pKd on FimH-CRD (setting [2]) and at FimH-CRD (setting [3]) was > 8.30 in each case.
For the compound `OC[C@H]1O[C@H](C#Cc2cccc(C#C[C@H]3O[C@H](CO)[C@@H](O)[C@H](O)[C@@H]3O)c2)[C@@H](O)[C@@H](O)[C@@H]1O` [Compound 57, (2R,3S,4R,5S,6R)-2-(Hydroxymethyl)-6-[2-[3-[2-[(2R,3S,4R,5S,6R)-3,4,5-trihydroxy-6-(hydroxymethyl)tetrahydropyran-2-yl]ethynyl]phenyl]ethynyl]tetrahydropyran-3,4,5-triol], in experiment [1], the pIC50 is 7.57. Moreover, the pKd at FimH-CRD (setting [2]) and at FimH-CRD (setting [3]) was > 8.30 throughout.
On to `CC(=O)N[C@@H]1[C@@H](O)[C@H](O)[C@@H](CO)O[C@H]1n1cc([C@H]2O[C@H](CO)[C@@H](O)[C@H](O)[C@@H]2O)nn1` [Compound 45, (N-[(2R,3R,4R,5S,6R)-4,5-Dihydroxy-6-(hydroxymethyl)-2-[4-[(2R,3S,4R,5S,6R)-3,4,5-trihydroxy-6-(hydroxymethyl)tetrahydropyran-2-yl]triazol-1-yl]tetrahydropyran-3-yl]acetamide)], for which the pKd on FimH-CRD (setting [2]) is 6.15 and 6.24 and 6.25 and 6.23.
In the case of `OC[C@H]1O[C@H](c2ccc3cc(C#C[C@H]4O[C@H](CO)[C@@H](O)[C@H](O)[C@@H]4O)ccc3c2)[C@@H](O)[C@@H](O)[C@@H]1O` [Compound 56, (2R,3S,4R,5S,6R)-2-(Hydroxymethyl)-6-[2-[6-[(2R,3S,4R,5S,6R)-3,4,5-trihydroxy-6-(hydroxymethyl)tetrahydropyran-2-yl]-2-naphthyl]ethynyl]tetrahydropyran-3,4,5-triol], in experiment [1], the pIC50 was 7.70. Further, the pKd at FimH-CRD (setting [2]) and on FimH-CRD (setting [3]) was > 8.30 each time.
Consider `O=C(C[C@H]1O[C@H](CO)[C@@H](O)[C@H](O)[C@@H]1O)NCc1ccc(CNC(=O)C[C@H]2O[C@H](CO)[C@@H](O)[C@H](O)[C@@H]2O)cc1` [Compound 49, (2-[(2R,3S,4R,5S,6R)-3,4,5-Trihydroxy-6-(hydroxymethyl)tetrahydropyran-2-yl]-N-[[4-[[[2-[(2R,3S,4R,5S,6R)-3,4,5-trihydroxy-6-(hydroxymethyl)tetrahydropyran-2-yl]acetyl]amino]methyl]phenyl]methyl]acetamide)], for which the pKd on FimH-CRD (setting [2]) was 6.83 and 7.06.
As for `OC[C@H]1O[C@H](C/C=C/c2ccc(C#C[C@H]3O[C@H](CO)[C@@H](O)[C@H](O)[C@@H]3O)cc2)[C@@H](O)[C@@H](O)[C@@H]1O` [Compound 55, (2R,3S,4R,5S,6R)-2-(Hydroxymethyl)-6-[(E)-3-[4-[2-[(2R,3S,4R,5S,6R)-3,4,5-trihydroxy-6-(hydroxymethyl)tetrahydropyran-2-yl]ethynyl]phenyl]allyl]tetrahydropyran-3,4,5-triol], the pIC50 in experiment [1] was 6.68. On FimH-CRD (setting [2]), the pKd is > 8.30 and 8.30.
Take `O=C(Nc1cccc([C@H]2O[C@H](CO)[C@@H](O)[C@H](O)[C@@H]2O)c1)Nc1cccc([C@H]2O[C@H](CO)[C@@H](O)[C@H](O)[C@@H]2O)c1` [Compound 51, (1,3-Bis(3-((2R,3S,4R,5S,6R)-3,4,5-trihydroxy-6-(hydroxymethyl)tetrahydro-2H-pyran-2-yl)phenyl)urea)]: the pIC50 in experiment [1] was 6.08. In addition, the pKd at FimH-CRD (setting [2]) is 7.82 and > 8.30.
For the compound `OC[C@H]1O[C@H](C#Cc2ccc3cc(C#C[C@H]4O[C@H](CO)[C@@H](O)[C@H](O)[C@@H]4O)ccc3c2)[C@@H](O)[C@@H](O)[C@@H]1O` [Compound 59, (2R,3S,4R,5S,6R)-2-(Hydroxymethyl)-6-[2-[6-[2-[(2R,3S,4R,5S,6R)-3,4,5-trihydroxy-6-(hydroxymethyl)tetrahydropyran-2-yl]ethynyl]-2-naphthyl]ethynyl]tetrahydropyran-3,4,5-triol], in experiment [1], the pIC50 is 8.09. In addition, the pKd on FimH-CRD (setting [2]) and at FimH-CRD (setting [3]) was > 8.30 in each case.
For the compound `OC[C@H]1O[C@H](c2csc([C@H]3O[C@H](CO)[C@@H](O)[C@H](O)[C@@H]3O)c2)[C@@H](O)[C@@H](O)[C@@H]1O` [Compound 47, ((2R,3S,4R,5S,6R)-2-(Hydroxymethyl)-6-[5-[(2S,3S,4S,5S,6R)-3,4,5-trihydroxy-6-(hydroxymethyl)tetrahydropyran-2-yl]-3-thienyl]tetrahydropyran-3,4,5-triol)], the pKd on FimH-CRD (setting [2]) was 7.36 and 7.43 and 7.29 and 7.44.
